Measured values published in ChEMBL document CHEMBL1201862, “PubChem BioAssay data set” (2004).
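Where inhibition never reached the appropriate level, the endpoint shown equals the highest concentration tested. Otherwise, values were interpolated linearly from a five-concentration, 48-hour dose response in 96-well plates. Here, GI50 denotes the concentration required for 50% inhibition of growth.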 Calls of active or inactive are those of the source. No stated cut-off is given here; in the data, active = GI50 up to about 1.1 µM and inactive = higher.

Assays:
Experiment in all cases: NCI anticancer screen, dose series, 48 h
IGROV-1 = system: IGROV-1
MOLT-4 = system: MOLT-4
SW-620 = system: SW-620
K562 = system: K562
LOX IMVI = system: LOX IMVI
Malme-3M = system: Malme-3M
SF-539 = system: SF-539
NCI-H460 = system: NCI-H460
OVCAR-4 = system: OVCAR-4
HT-29 = system: HT-29
SK-MEL-28 = system: SK-MEL-28
SNB-19 = system: SNB-19
U-251 = system: U-251
HCT-116 = system: HCT-116
UACC-62 = system: UACC-62
CCRF-CEM = system: CCRF-CEM
NCI-H522 = system: NCI-H522

Row | Structure (SMILES) | GI50 (IGROV-1) | GI50 (MOLT-4) | GI50 (SW-620) | GI50 (K562) | GI50 (LOX IMVI) | GI50 (Malme-3M) | GI50 (SF-539) | GI50 (NCI-H460) | GI50 (OVCAR-4) | GI50 (HT-29) | GI50 (SK-MEL-28) | GI50 (SNB-19) | GI50 (U-251) | GI50 (HCT-116) | GI50 (UACC-62) | GI50 (CCRF-CEM) | GI50 (NCI-H522)
1 | O=C1Cc2ccccc2N1/N=C\c1ccc(O)cc1 | > 100 µM (inactive) | 13.4 µM (inactive) | > 100 µM (inactive) | 61.4 µM (inactive) | > 100 µM (inactive) | > 100 µM (inactive) | 95.7 µM (inactive) | > 100 µM (inactive) | > 100 µM (inactive) | > 100 µM (inactive) | > 100 µM (inactive) | > 100 µM (inactive) | > 100 µM (inactive) | > 100 µM (inactive) | > 100 µM (inactive) | 11.5 µM (inactive) | –
2 | COC[n+]1cc2cc(OC)c(OC)cc2c2ccc3cc(OC)c(OC)cc3c21 | > 100 µM (inactive) | > 100 µM (inactive) | > 100 µM (inactive) | > 100 µM (inactive) | > 100 µM (inactive) | > 100 µM (inactive) | > 100 µM (inactive) | > 100 µM (inactive) | > 100 µM (inactive) | > 100 µM (inactive) | > 100 µM (inactive) | > 100 µM (inactive) | > 100 µM (inactive) | > 100 µM (inactive) | > 100 µM (inactive) | 98.2 µM (inactive) | > 100 µM (inactive)
3 | CCOc1ccc(-c2oc(/C=N/NS(=O)(=O)c3ccc(C)cc3)c([N+](=O)[O-])c2-c2ccc(OCC)cc2)cc1 | 14.1 µM (inactive) | 2.65 µM (inactive) | 2.61 µM (inactive) | 3.79 µM (inactive) | 3.46 µM (inactive) | 19.1 µM (inactive) | 16.1 µM (inactive) | 13.2 µM (inactive) | 11.3 µM (inactive) | 5.19 µM (inactive) | 12.4 µM (inactive) | 15 µM (inactive) | 8.22 µM (inactive) | 2.03 µM (inactive) | 7.11 µM (inactive) | 2.54 µM (inactive) | 5.96 µM (inactive)
4 | C[C@H](CCC1SC1(C)C)C1CCC2(C)C3=C(CC[C@]12C)[C@@]1(C)CC[C@H](O)C(C)(C)C1CC3 (some centres undefined) | > 100 µM (inactive) | > 100 µM (inactive) | > 100 µM (inactive) | > 100 µM (inactive) | > 100 µM (inactive) | > 100 µM (inactive) | – | > 100 µM (inactive) | > 100 µM (inactive) | > 100 µM (inactive) | > 100 µM (inactive) | > 100 µM (inactive) | > 10 µM (inactive) | > 100 µM (inactive) | > 100 µM (inactive) | > 100 µM (inactive) | > 100 µM (inactive)
5 | O=C1C=Cc2noc3cccc1c23 | 12.9 µM (inactive) | 0.836 µM (active) | 4.01 µM (inactive) | 2.5 µM (inactive) | 3.15 µM (inactive) | 12.3 µM (inactive) | 16.4 µM (inactive) | – | 2.07 µM (inactive) | 15.1 µM (inactive) | 5.47 µM (inactive) | 17.5 µM (inactive) | 13.4 µM (inactive) | 2.11 µM (inactive) | 3.06 µM (inactive) | 0.412 µM (active) | 1.29 µM (inactive)
6 | CC(=O)OCC(=O)[C@@]1(O)CC[C@H]2[C@@H]3C[C@H](C)C4=CC(=O)C=C[C@]4(C)[C@@]3(F)[C@@H](O)C[C@@]21C | > 100 µM (inactive) | 68.7 µM (inactive) | > 100 µM (inactive) | > 100 µM (inactive) | > 100 µM (inactive) | > 100 µM (inactive) | > 100 µM (inactive) | > 100 µM (inactive) | > 100 µM (inactive) | > 100 µM (inactive) | > 100 µM (inactive) | > 100 µM (inactive) | 60.4 µM (inactive) | > 100 µM (inactive) | 80.4 µM (inactive) | 5.33 µM (inactive) | > 100 µM (inactive)
7 | NCCNC(=O)c1cccc2cc3ccccc3nc12 | 3.48 µM (inactive) | 0.333 µM (active) | 1.42 µM (inactive) | 2.15 µM (inactive) | 1.24 µM (inactive) | 0.495 µM (active) | 4.35 µM (inactive) | – | 3.75 µM (inactive) | 1.87 µM (inactive) | 3 µM (inactive) | 4.09 µM (inactive) | 2.11 µM (inactive) | 1.11 µM (active) | 2.75 µM (inactive) | – | 3.57 µM (inactive)
8 | CNc1nc(N)cc(O)n1 | > 100 µM (inactive) | > 100 µM (inactive) | > 100 µM (inactive) | > 100 µM (inactive) | > 100 µM (inactive) | > 100 µM (inactive) | – | > 100 µM (inactive) | > 100 µM (inactive) | > 100 µM (inactive) | > 100 µM (inactive) | > 100 µM (inactive) | > 100 µM (inactive) | > 100 µM (inactive) | > 100 µM (inactive) | > 100 µM (inactive) | > 100 µM (inactive)
9 | Nc1nc(Cl)cc(NCCCCCCCCCCNc2cc(Cl)nc(N)n2)n1 | 22.2 µM (inactive) | – | 35.6 µM (inactive) | 0.0897 µM (active) | 1.56 µM (inactive) | – | 22.1 µM (inactive) | 5.96 µM (inactive) | 8.13 µM (inactive) | 8.93 µM (inactive) | – | 75 µM (inactive) | 4.21 µM (inactive) | 0.196 µM (active) | 0.0226 µM (active) | 18.9 µM (inactive) | 0.415 µM (active)
